Experimental data from US8063240B2, “Prostaglandin E1 and E2 analogs for the treatment of various medical conditions” (Cayman Chemical Company, Incorporated, priority 2007, dated 2011).

What was measured:
human EP4 receptor = target: T1, human EP4 receptor (Homo sapiens, UniProt P35408); assay: Functional Assay #4AGii (Cerep EP4 Agonist Assay), cAMP production, HTRF detection; format: cell-based; conditions: mean of N=2, percent of control response to 1 μM PGE2, transfected CHO cells
T1 construct: host or cells: CHO
Description: Alternative EP4 Receptor Agonism Assay
(Cerep, Catalog Reference 758-49a; Wilson, R. J., et al., Ibid.)
Evaluation of the agonist activity of compounds at the human EP4 receptor in transfected CHO cells, determined by measuring their effects on cAMP production using the HTRF detection method.
The cells are suspended in HBSS buffer (Invitrogen) complemented with HEPES 20 mM (pH 7.4) and 500 μM IBMX, then distributed in microplates at a density of 2.10^4 cells/well and incubated for 10 minutes at room temperature in the absence (control) or presence of the test compound or the reference agonist. For stimulated control measurements, separate assay wells contain 1 μM PGE2. Following incubation, the cells are lysed and the fluorescence acceptor (D2-labeled cAMP) and fluorescence donor (anti-cAMP antibody labeled with europium cryptate) are added. After 60 minutes at room temperature, the fluorescence transfer is measured at λex=337 nm and λem=620 and 665 nm using a microplate reader (Rubystar, BMG). The cAMP concentration is determined by dividing the signal measured at 665 nm by that measured at 620 nm (ratio). The results are expressed as a percent of the control response to 1 μM PGE2. The standard reference agonist is PGE2, which is tested in each experiment at several concentrations to generate a concentration-response curve from which its EC50 value is calculated.

human EP1 receptor = target: T2, human EP1 receptor (Homo sapiens, UniProt P34995); assay: Functional Assay #1AGii (Cerep EP1 Agonist Assay), cytosolic Ca2+ mobilization, fluorimetric detection; format: cell-based; conditions: mean of N=2, percent of control response to 100 nM PGE2, transfected HEK-293 cells
T2 construct: host or cells: HEK-293
T2 sequence (P34995 1-402): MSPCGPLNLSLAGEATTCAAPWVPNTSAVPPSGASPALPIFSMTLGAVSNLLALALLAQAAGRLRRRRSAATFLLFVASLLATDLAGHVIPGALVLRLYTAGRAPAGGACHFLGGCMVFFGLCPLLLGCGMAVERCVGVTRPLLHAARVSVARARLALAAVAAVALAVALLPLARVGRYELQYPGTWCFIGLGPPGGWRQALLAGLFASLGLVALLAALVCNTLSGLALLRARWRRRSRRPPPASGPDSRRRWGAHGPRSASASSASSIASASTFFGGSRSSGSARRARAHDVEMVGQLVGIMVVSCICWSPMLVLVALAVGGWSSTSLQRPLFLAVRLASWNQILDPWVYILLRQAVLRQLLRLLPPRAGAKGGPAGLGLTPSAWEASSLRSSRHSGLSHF
Excerpt: Alternative EP1 Receptor Agonism Assay
(Cerep, Catalog reference 722-55a; UNGRIN, M. D., SINGH L. M. R., STOCCO, R., SAS, D. E. and ABRAMOVITZ, M. (1999), An automated aequorin luminescence-based functional calcium assay for G-Protein-Coupled Receptors. Analytical Biochem., 272, 34.)
Evaluation of the agonist activity of compounds at the human EP1 receptor in transfected HEK-293 cells, determined by measuring their effect on cytosolic Ca^2+ ion mobilization using a fluorimetric detection method.
The cells are suspended in DMEM buffer (Invitrogen), then distributed in microplates at a density of 3.10^4 cells/well. The fluorescent probe (Fluo4 NR, Invitrogen) mixed with probenicid in HBSS buffer (Invitrogen) complemented with 20 mM Hepes (Invitrogen) (pH 7.4) is then added into each well and equilibrated with the cells for 30 minutes at 37° C. then 30 minutes at 22° C. Thereafter, the assay plates are positioned in a microplate reader (CellLux, PerkinElmer) which is used for the addition of the test compound, reference agonist or HBSS buffer (basal control), and the measurements of changes in fluorescence intensity which varies proportionally to the free cytosolic Ca^2+ ion concentration. For stimulated control measurements, PGE2 at 100 nM is added in separate assay wells.
The results are expressed as a percent of the control response to 100 nM PGE2. The standard reference agonist is PGE2, which is tested in each experiment at several concentrations to generate a concentration-response curve from which its EC50 value is calculated.

human EP2 receptor = target: T3, human EP2 receptor (Homo sapiens, UniProt P43116); assay: Functional Assay #2AGii (Cerep EP2 Agonist Assay), cAMP production, HTRF detection; format: cell-based; conditions: mean of N=2, percent of control response to 10 μM PGE2, transfected CHO cells
T3 construct: host or cells: CHO
Excerpt: Alternative EP2 Receptor Agonism Assay
(Cerep, Catalog reference 758-54a; WILSON, R. J., RHODES, S. A., WOOD, R. L., SHIELD, V. J., NOEL, L. S., GRAY, D. W. and GILES H. (2004), Functional pharmacology of human prostanoid EP2 and EP4 receptors, Eur. J. Pharmacol., 501, 49.)
Evaluation of the agonist activity of compounds at the human EP2 receptor in transfected CHO cells, determined by measuring their effects on cAMP production using the HTRF detection method.
The cells are suspended in HBSS buffer (Invitrogen) complemented with HEPES 20 mM (pH 7.4) and 500 μM IBMX, then distributed in microplates at a density of 10^4 cells/well and incubated for 30 minutes at 37° C. in the absence (control) or presence of the test compound or the reference agonist. For stimulated control measurements, separate assay wells contain 10 μM PGE2. Following incubation, the cells are lysed and the fluorescence acceptor (D2-labeled cAMP) and fluorescence donor (anti-cAMP antibody labeled with europium cryptate) are added. After 60 minutes at room temperature, the fluorescence transfer is measured at λex=337 nm and λem=620 and 665 nm using a microplate reader (Rubystar, BMG). The cAMP concentration is determined by dividing the signal measured at 665 nm by that measured at 620 nm (ratio). The results are expressed as a percent of the control response to 10 μM PGE2. The standard reference agonist is PGE2, which is tested in each experiment at several concentrations to generate a concentration-response curve from which its EC50 value is calculated.

[1] = Stability of purified HPLC peak left overnight in mobile phase; format: physicochemical; conditions: mobile phase 70:30:0.1 MeOH/H2O/AcOH
Description: Mobile phase: 70:30:0.1 MeOH/H2O/AcOH—premixed
Sample concentration: sample was dissolved at 100 mg/mL in 70:30 MeOH/H2O Peaks were collected manually at 0° C. and purified batches were kept at −20° C. at the end of each day. Peak 2 (title compound, 14.6 minute retention time) degrades about 6% when left at 4° C. overnight in mobile phase and degrades minimally (<1%) when left at −20° C. overnight. […] LCMS data of both products confirm masses consistent with the designations presented herein.

T3 sequence (P43116 whole entry): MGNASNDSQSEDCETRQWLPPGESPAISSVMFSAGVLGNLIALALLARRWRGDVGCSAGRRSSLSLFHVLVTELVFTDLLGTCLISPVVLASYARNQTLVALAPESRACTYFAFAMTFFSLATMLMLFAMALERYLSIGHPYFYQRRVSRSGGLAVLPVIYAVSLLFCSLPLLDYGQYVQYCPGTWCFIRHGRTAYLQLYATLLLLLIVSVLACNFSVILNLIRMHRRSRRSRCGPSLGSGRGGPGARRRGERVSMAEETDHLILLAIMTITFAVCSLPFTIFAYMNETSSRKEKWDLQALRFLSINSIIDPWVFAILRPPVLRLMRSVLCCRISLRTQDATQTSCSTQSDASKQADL
T1 sequence (P35408 whole entry): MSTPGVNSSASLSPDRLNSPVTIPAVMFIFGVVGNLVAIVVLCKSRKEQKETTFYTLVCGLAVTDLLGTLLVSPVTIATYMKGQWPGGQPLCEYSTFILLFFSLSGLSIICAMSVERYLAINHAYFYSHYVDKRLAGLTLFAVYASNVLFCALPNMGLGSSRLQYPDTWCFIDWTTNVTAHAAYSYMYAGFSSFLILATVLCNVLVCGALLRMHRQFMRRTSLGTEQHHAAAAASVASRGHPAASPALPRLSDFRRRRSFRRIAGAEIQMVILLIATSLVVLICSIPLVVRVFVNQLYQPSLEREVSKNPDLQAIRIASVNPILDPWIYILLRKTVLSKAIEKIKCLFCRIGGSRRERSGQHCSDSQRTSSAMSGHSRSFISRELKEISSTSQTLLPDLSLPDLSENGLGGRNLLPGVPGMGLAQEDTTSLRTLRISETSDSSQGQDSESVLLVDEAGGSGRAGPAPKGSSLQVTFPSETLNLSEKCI

Row | % Control Agonist response @ compound concentration (human EP4 receptor; 0.1 μM) | % Control Agonist response @ compound concentration (human EP4 receptor; 1 μM) | % Control Agonist response @ compound concentration (human EP4 receptor; 10 μM) | % Control Agonist response @ compound concentration (human EP1 receptor; 0.1 μM) | % Control Agonist response @ compound concentration (human EP1 receptor; 1 μM) | % Control Agonist response @ compound concentration (human EP1 receptor; 10 μM) | % Control Agonist response @ compound concentration (human EP2 receptor; 0.1 μM) | % Control Agonist response @ compound concentration (human EP2 receptor; 1 μM) | % Control Agonist response @ compound concentration (human EP2 receptor; 10 μM) | degradation when left overnight in mobile phase ([1]; 4° C. overnight) | degradation when left overnight in mobile phase ([1]; −20° C. overnight) | SMILES
1 | −1% | 4% | 29% | 80% | 88% | 144% | 0% | −1% | 5% | – | – | O=C(O)CCC/C=C\C[C@H]1C(=O)C[C@@H](O)[C@@H]1/C=C/[C@@H](O)c1cc2ccccc2s1 [Example 7, (Z)-7-((1R,2R,3R)-2-((R,E)-3-(benzo[b]thiophen-2-yl)-3-hydroxyprop-1-enyl)-3-hydroxy-5-oxocyclopentyl)hept-5-enoic Acid]
2 | – | – | – | – | – | – | – | – | – | about 6% | < 1% | O=C(O)CCC/C=C\C[C@H]1C(=O)C[C@H](F)[C@@H]1/C=C/[C@@H](O)C1Cc2ccccc2C1 (single isomer, unassigned) [Example 17]
